Test results published in patent US20260285853A1, “COMPOUNDS AND METHODS FOR MODULATING SPLICING” (REMIX THERAPEUTICS INC., priority 2023, published 2026).
pIC50: −log10 of the molar value.

Columns and labels:
Format in all cases: cell-based
[1] = test system: HTT mRNA; assay: Gene panel canonical junction qPCR assay, decrease in CJ mRNA, Table 3; conditions: decrease in CJ mRNA levels, canonical junction qPCR, gene panel
Summary of the method: (§1)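 IC50 denotes the concentration giving 50% decrease in canonical-junction mRNA, fitted by 4-parameter logistic to percentage response derived from ΔΔCt versus housekeeping gene and DMSO control. Cells (A673 or K562) exposed 24 h to 11-point 3-fold serial dilutions from 10 uM top, DMSO ≤0.25%; junction-spanning primer/probe qPCR.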

[2] = test system: MYB mRNA; assay: as above; conditions: decrease in CJ mRNA levels, canonical junction qPCR, gene panel
Summary of the method: as §1

[3] = test system: HTT mRNA; assay: Splicing RT-qPCR assay (THP), Table 2A; conditions: Table 2A, THP; for AC50: HTT alternative junction (AJ) mRNA, read-out: HTT AJ (AC50, increase in alternative junction mRNA); for pIC50: HTT canonical junction (CJ) mRNA, read-out: HTT CJ (IC50, decrease in canonical junction mRNA)
[4] = test system: SH-SY5Y (human neuroblastoma) cells; assay: Cell viability, Cell Titer Glo 2.0 assay; conditions: read-out: Viability SHSY5Y.3 GI50
Summary of the method: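 Viability was read by CellTiter-Glo 2.0 luminescence after a 72-hour compound exposure at 37° C. under 5% CO2. Cells were in IMDM plus 10% FBS containing 0.1% DMSO, and medium-only wells gave the blank.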

[5] = test system: MYB mRNA; assay: Splicing RT-qPCR assay (THP), Table 2A; conditions: Table 2A, THP; for AC50: MYB alternative junction (AJ) mRNA, read-out: MYB AJ (AC50, increase in alternative junction mRNA); for pIC50: MYB canonical junction (CJ) mRNA, read-out: MYB CJ (IC50, decrease in canonical junction mRNA)

Cc1cn2cc(NC(=O)c3ccc(N4CCC(NC5CC5)CC4)c4cn(C)nc34)nc2c(CN)n1 [Compound 734, N-(8-(aminomethyl)-6-methylimidazo[1,2-a]pyrazin-2-yl)-4-(4-(cyclopropylamino)piperidin-1-yl)-2-methyl-2H-indazole-7-carboxamide bis(2,2,2-trifluoroacetate)]
pIC50 [1]: < 5.00 | pIC50 [2]: < 5.00 | AC50 [3]: > 10 µM | pIC50 [3]: < 5.00 | GI50 [4]: > 10 µM | AC50 [5]: > 10 µM | pIC50 [5]: < 5.00

Cn1cc2cc(NC(=O)c3ccc(N4CCC(NC5CC5)CC4)c4cn(C)nc34)cc(CNS(C)(=O)=O)c2n1 [Compound 735, 4-(4-(cyclopropylamino)piperidin-1-yl)-2-methyl-N-(2-methyl-7-(methylsulfonamidomethyl)-2H-indazol-5-yl)-2H-indazole-7-carboxamide 2,2,2-trifluoroacetate]
pIC50 [1]: < 5.00 | pIC50 [2]: 5.00 to 6.00 | AC50 [3]: > 10 µM | pIC50 [3]: < 5.00 | GI50 [4]: > 10 µM | AC50 [5]: 1 to 10 µM | pIC50 [5]: 5.00 to 6.00

CCNC1CCN(c2ccc(C(=O)Nc3cc4cn(C)nc4cc3OC)c3nn(C)cc23)C(C)C1 (stereo not drawn) [Compound 736, 4-(4-(ethylamino)-2-methylpiperidin-1-yl)-N-(6-methoxy-2-methyl-2H-indazol-5-yl)-2-methyl-2H-indazole-7-carboxamide 2,2,2-trifluoroacetate]
pIC50 [1]: < 5.00 | pIC50 [2]: < 5.00 | AC50 [3]: > 10 µM | pIC50 [3]: < 5.00 | GI50 [4]: 1 to 10 µM | AC50 [5]: 1 to 10 µM | pIC50 [5]: < 5.00

CCNC1CCN(c2ccc(C(=O)Nc3cc4cn(C)nc4cc3OC)c3nn(C)cc23)C(C)(C)C1 (stereo not drawn) [Compound 737, 4-[4-(ethylamino)-2,2-dimethyl-1-piperidyl]-N-(6-methoxy-2-methyl-indazol-5-yl)-2-methyl-indazole-7-carboxamide]
pIC50 [1]: < 5.00 | pIC50 [2]: < 5.00 | AC50 [3]: > 10 µM | pIC50 [3]: < 5.00 | GI50 [4]: 1 to 10 µM | AC50 [5]: > 10 µM | pIC50 [5]: < 5.00

COc1nc2c(C(=O)Nc3cc(C)c4nn(C)cc4n3)ccc(N3C[C@H](C)N[C@@H](C)C3)c2s1 [Compound 738, N-(2,7-dimethyl-2H-pyrazolo[4,3-b]pyridin-5-yl)-7-((3S,5S)-3,5-dimethylpiperazin-1-yl)-2-methoxybenzo[d]thiazole-4-carboxamide 2,2,2-trifluoroacetate]
pIC50 [1]: < 5.00 | pIC50 [2]: > 7.00 | AC50 [3]: > 10 µM | pIC50 [3]: < 5.00 | GI50 [4]: 0.1 to 1 µM | AC50 [5]: < 0.1 µM | pIC50 [5]: > 7.00

COc1nc2c(C(=O)Nc3cc(C)c4nc(C)cn4n3)ccc(N3C[C@H](C)N[C@@H](C)C3)c2s1 [Compound 739, N-(2,8-dimethylimidazo[1,2-b]pyridazin-6-yl)-7-[(3S,5S)-3,5-dimethylpiperazin-1-yl]-2-methoxy-1,3-benzothiazole-4-carboxamide]
pIC50 [1]: 5.00 to 6.00 | pIC50 [2]: > 7.00 | AC50 [3]: 0.1 to 1 µM | pIC50 [3]: 5.00 to 6.00 | GI50 [4]: 0.1 to 1 µM | AC50 [5]: < 0.1 µM | pIC50 [5]: > 7.00

COc1nc2c(C(=O)Nc3cccc4c3nnn4C)ccc(N3C[C@H](C)N[C@@H](C)C3)c2s1 [Compound 740, 7-[(3S,5S)-3,5-dimethylpiperazin-1-yl]-2-methoxy-N-(1-methylbenzotriazol-4-yl)-1,3-benzothiazole-4-carboxamide]
pIC50 [1]: 5.00 to 6.00 | pIC50 [2]: < 5.00 | AC50 [3]: > 10 µM | pIC50 [3]: 5.00 to 6.00 | GI50 [4]: 1 to 10 µM | AC50 [5]: > 10 µM | pIC50 [5]: < 5.00

COc1nc2c(C(=O)Nc3cc(F)c4nn(C)cc4c3)ccc(N3C[C@H](C)NC4(CC4)C3)c2s1 [Compound 741]
pIC50 [1]: < 5.00 | pIC50 [2]: > 7.00 | AC50 [3]: 1 to 10 µM | pIC50 [3]: < 5.00 | GI50 [4]: < 0.1 µM | AC50 [5]: < 0.1 µM | pIC50 [5]: > 7.00

COc1nc2c(C(=O)Nc3cc(F)c4nn(C)cc4c3)ccc(N3CCN[C@@H](C(C)(C)C)C3)c2s1 [Compound 742, 7-[(3S)-3-tert-butylpiperazin-1-yl]-N-(7-fluoro-2-methyl-indazol-5-yl)-2-methoxy-1,3-benzothiazole-4-carboxamide]
pIC50 [1]: < 5.00 | pIC50 [2]: 6.00 to 7.00 | AC50 [3]: > 10 µM | pIC50 [3]: < 5.00 | GI50 [4]: 1 to 10 µM | AC50 [5]: 0.1 to 1 µM | pIC50 [5]: 6.00 to 7.00
